Measured values as given in patent publication US10413557B2, “Prodrugs of 17.BETA.-HSD1-inhibitors” (FORENDO PHARMA LTD, priority 2014, dated 2019).

How the values were obtained:
[1] = target: T1, recombinant human 17β-HSD1 (Homo sapiens, UniProt P14061); assay: Inhibition of recombinant human 17β-HSD1 (conversion of 3H-estrone to estradiol, HPLC); type: biochemical; details: inhibitor 1 μM, 30 nM estrone, 1 mM NADPH, 30 min RT; for inhibition at 1 µM: read-out: 17β-HDS1 Inhibition % at 1 μM
T1 construct: made in house; host or cells: Sd9 (Sf9) insect cells, baculovirus (Bac to Bac Expression System)
T1 sequence (P14061 1-328): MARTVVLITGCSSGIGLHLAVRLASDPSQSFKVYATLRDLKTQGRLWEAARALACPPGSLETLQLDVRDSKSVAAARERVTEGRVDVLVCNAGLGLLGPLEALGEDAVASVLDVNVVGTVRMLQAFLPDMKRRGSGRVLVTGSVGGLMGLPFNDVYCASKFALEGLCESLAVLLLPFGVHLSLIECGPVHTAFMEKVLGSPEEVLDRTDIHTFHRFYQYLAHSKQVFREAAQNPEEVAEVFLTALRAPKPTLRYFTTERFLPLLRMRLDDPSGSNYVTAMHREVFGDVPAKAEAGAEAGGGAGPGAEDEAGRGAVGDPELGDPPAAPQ
Protocol: 17β-HSD1 production and isolation: Recombinant baculovirus was generated by the “Bac to Bac Expression System” (Invitrogen). Recombinant bacmid was transfected to Sd9 insect cells using “Cellfectin Reagent” (Invitrogen). 60 h later cells were harvested; the microsomal fraction was isolated as described by Puranen, T. J., Poutanen, M. H., Peltoketo, H. E., Vihko, P. T. and Vihko, R. K. (1994) Site-directed mutagenesis of the putative active site of human 17 β-hydroxysteroid dehydrogenase type 1. Biochem. J. 304: 289-293. Aliquots were stored frozen until determination of enzymatic activity.
Assay—Inhibition of recombinant human 17β-HSD1: Protein homogenate (0.1 μg/ml) was incubated in 20 mM KH2PO4 pH 7.4 with 30 nM estrone (including 800 000 cpm/ml of ^3H-estrone) and 1 mM NADPH for 30 min at RT, in the presence of the potential inhibitor at concentrations 1 μM or 0.1 μM. Inhibitor stock solutions were prepared in DMSO. Final concentration of DMSO was adjusted to 1% in all samples. The enzyme reaction was stopped by addition of 10% trichloroacetic acid (final concentration). Samples were centrifuged in a microtiter plate at 4000 rpm for 10 min. Supernatants were applied to reverse phase HPLC on a Waters Symmetry C18 column, equipped with a Waters Sentry Guard column. Isocratic HPLC runs were performed at RT at a flow rate of 1 ml/min in acetonitrile:water 48:52 as running solvent. Radioactivity was monitored in the eluate by a Packard Flow Scintillation Analyzer. Total radioactivity for estrone and estradiol were determined in each sample and percent conversion of estrone to estradiol was calculated according to the following formula:
(§1) Percent inhibition was calculated flowingly: % inhibition=100−% conversion

[2] = Metabolic stability assay; type: in vitro ADME; details: human liver homogenate or microsomes
Protocol: The in vitro metabolic stability of the parent compounds was determined for exemplified compounds using human liver microsome and homogenate incubations. The incubation time points used with or without appropriate cofactors were 0 min and 60 min. Samples were collected at both time points and substrates were detected using LC/PDA/TOF-MS. In vitro metabolic stability (% remaining after 60 min in human liver homogenate or microsomes) of the compounds were calculated and the results are summarized in Table 4.

[3] = target: T2, recombinant human 17β-HSD2 (Homo sapiens, UniProt P37059); assay: Inhibition of recombinant human 17β-HSD2 (conversion of 3H-estradiol to estrone, HPLC); type: biochemical; details: inhibitor 1 μM; 50 nM estradiol, 1 mM NADH, 30 min RT
T2 construct: made in house; host or cells: Sd9 (Sf9) insect cells, baculovirus (Bac to Bac Expression System)
T2 sequence (P37059 1-387): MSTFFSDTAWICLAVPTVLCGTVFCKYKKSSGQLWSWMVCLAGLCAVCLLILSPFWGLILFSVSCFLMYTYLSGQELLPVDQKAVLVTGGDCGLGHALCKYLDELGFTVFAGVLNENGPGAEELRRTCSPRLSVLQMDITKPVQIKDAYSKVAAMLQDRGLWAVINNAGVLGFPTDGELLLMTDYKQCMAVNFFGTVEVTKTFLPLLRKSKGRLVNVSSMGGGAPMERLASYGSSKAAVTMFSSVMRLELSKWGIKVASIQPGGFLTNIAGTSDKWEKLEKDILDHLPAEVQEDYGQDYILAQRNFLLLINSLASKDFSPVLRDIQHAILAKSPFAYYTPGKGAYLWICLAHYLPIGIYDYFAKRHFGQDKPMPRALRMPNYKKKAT
Protocol: 17β-HSD2 production and isolation: Similarly to 17β-HSD1 the Recombinant baculovirus was generated by the “Bac to Bac Expression System” (Invitrogen). Recombinant bacmid was transfected to Sd9 insect cells using “Cellfectin Reagent” (Invitrogen). 60 h later cells were harvested and supernatant were fractionated by the following protocol: • cells were dissolved into 40 ml of A-buffer (40 mM TRIS, pH8.0, 20% glycerol, 20 μM NAD, 0.4 mM PMSF, 150 mM NaCl, 0.5% dodecyl-β-maltoside+protease inhibitor cocktail) • cells were sonicated • lysate was incubated on ice for 15 min • lysate was centrifuged 5000 rpm 15 min, +4° C. • centrifugation of the supernatant 180 000 g 30 min, +4° C. • pellet was dissolved into 8 ml of A-buffer • not resuspended material was removed by centrifugation 5000 rpm 15 min, +4° C. • the clear supernatant was divided into 100 μl aliquots and were stored frozen until determination of enzymatic activity.
The amount of 17β-HSD2 was analysed by immunoblotting and total protein concentration of each extract batch was determined.
Assay—Inhibition of recombinant human 17β-HSD2: Protein homogenate (4 μg/ml) was incubated in 20 mM KH2PO4 pH 8.5 with 50 nM estradiol (including 800 000 cpm/ml of ^3H-estradiol) and 1 mM […] for 30 min at RT, in the presence of the potential inhibitor at concentrations 1 μM or 0.1 μM. Inhibitor stock solutions were prepared in DMSO. Final concentration of DMSO was adjusted to 1% in all samples. The enzyme reaction was stopped by addition of 10% trichloroacetic acid (final concentration). Samples were centrifuged in a microtiter plate at 4000 rpm for 10 min. Supernatants were applied to reverse phase HPLC on a Waters Symmetry C18 column, equipped with a Waters Sentry Guard column. Isocratic HPLC runs were performed at RT at a flow rate ofl ml/min in acetonitrile:water 48:52 as running solvent. Radioactivity was monitored in the eluate by a Packard Flow Scintillation Analyzer. Total radioactivity for estrone and estradiol were determined in each sample and percent conversion of estradiol to estrone was calculated according to the following formula:
as §1

Molecule	inhibition at 1 µM [1]	In vitro metabolic stability, % remaining after 60 min [2]	inhibition at 1 µM [3]	17β-HDS1 Inhibition % at 1 μM [1]	17β-HSD2 Inhibition % at 1 μM [3]
CO/N=C1\C[C@@H](CCC(=O)Nc2ncc(C)s2)C2C3CCc4cc(O)c(Br)cc4C3CC[C@]12C (stereo partly drawn) [VIV-9, 3-{(13S,15R)-2-Bromo-3-hydroxy-17-[(E)-methoxyimino]-13-methyl-7,8,9,11,12,13,14,15,16,17-decahydro-6H-cyclopenta[a]phenanthren-15-yl}-N-(5-methylthiazol-2-yl)-propanamide]	81%	34%	1%		
3-{(13S,15R)-2-Fluoro-3-hydroxy-17-[(E)-methoxyimino]-13-methyl-7,8,9,11,12,13,14,15,16,17-decahydro-6H-cyclopenta[a]phenanthren-15-yl}-N-(5-methylthiazol-2-yl)propanamide [VIV-15]		92%		94%	5%
3-{(13S,15R)-4-Fluoro-3-hydroxy-17-[(E)-methoxyimino]-13-methyl-7,8,9,11,12,13,14,15,16,17-decahydro-6H-cyclopenta[a]phenanthren-15-yl}-N-(5-methylthiazol-2-yl)propanamide [VIV-16]		68%		90%	7%
Cc1cnc(NC(=O)CC[C@@H]2CC(=O)[C@@]3(C)CCC4c5ccc(O)cc5CCC4C23)s1 (some centres unmarked) [VII, reference compound]		13%			
CO/N=C1\C[C@@H](CCC(=O)Nc2ncc(C)s2)C2C3CCc4c(ccc(O)c4[N+](=O)[O-])C3CC[C@]12C (stereo partly drawn) [VIV-4, 3-{(13S,15R)-3-Hydroxy-17-[(E)-methoxyimino]-13-methyl-4-nitro-7,8,9,11,12,13,14,15,16,17-decahydro-6H-cyclopenta[a]phenanthren-15-yl}-N-(5-methylthiazol-2-yl)propanamide]	90%		16%		
CO/N=C1\C[C@@H](CCC(=O)Nc2ncc(C)s2)C2C3CCc4c(cc(Br)c(O)c4Br)C3CC[C@]12C (stereo partly drawn) [VIV-11, 3-{(13S,15R)-2,4-Dibromo-3-hydroxy-17-[(E)-methoxyimino]-13-methyl-7,8,9,11,12,13,14,15,16,17-decahydro-6H-cyclopenta[a]phenanthren-15-yl}-N-(5-methylthiazol-2-yl)propanamide]	78%		3%		
Cc1cnc(NC(=O)CC[C@@H]2C/C(=N\O)[C@@]3(C)CCC4c5ccc(O)c(Cl)c5CCC4C23)s1 (stereo partly drawn) [VIV-29, 3-{(13S,15R)-4-Chloro-3-hydroxy-17-[(E)-hydroxyimino]-13-methyl-7,8,9,11,12,13,14,15,16,17-decahydro-6H-cyclopenta[a]phenanthren-15-yl}-N-(5-methylthiazol-2-yl)propanamide]	98%		21%		
CO/N=C1\C[C@@H](CCC(=O)Nc2ncc(C)s2)C2C3CCc4cc(O)c(Cl)cc4C3CC[C@]12C (stereo partly drawn) [VIV-12, 3-{(13S,15R)-2-Chloro-3-hydroxy-17-[(E)-methoxyimino]-13-methyl-7,8,9,11,12,13,14,15,16,17-decahydro-6H-cyclopenta[a]phenanthren-15-yl}-N-(5-methylthiazol-2-yl)propanamide]	95%	94%	3%		
CO/N=C1\C[C@@H](CCC(=O)Nc2ncc(C)s2)C2C3CCc4cc(O)c(I)cc4C3CC[C@]12C (stereo partly drawn) [VIV-6, 3-{(13S,15R)-3-Hydroxy-2-iodo-17-[(E)-methoxyimino]-13-methyl-7,8,9,11,12,13,14,15,16,17-decahydro-6H-cyclopenta[a]phenanthren-15-yl}-N-(5-methylthiazol-2-yl)propanamide]	90%		0%		
Cc1cnc(NC(=O)CC[C@@H]2C/C(=N\O)[C@@]3(C)CCC4c5cc(Cl)c(O)c(Cl)c5CCC4C23)s1 (stereo partly drawn) [VIV-30, 3-{(13S,15R)-2,4-Dichloro-3-hydroxy-17-[(E)-hydroxyimino]-13-methyl-7,8,9,11,12,13,14,15,16,17-decahydro-6H-cyclopenta[a]phenanthren-15-yl}-N-(5-methylthiazol-2-yl)propanamide]	87%		23%		
Cc1cnc(NC(=O)CC[C@@H]2C/C(=N\O)[C@@]3(C)CCC4c5cc(F)c(O)cc5CCC4C23)s1 (stereo partly drawn) [VIV-31, 3-{(13S,15R)-2-Fluoro-3-hydroxy-17-[(E)-hydroxyimino]-13-methyl-7,8,9,11,12,13,14,15,16,17-decahydro-6H-cyclopenta[a]phenanthren-15-yl}-N-(5-methylthiazol-2-yl)propanamide]	97%		14%		
CO/N=C1\C[C@@H](CCC(=O)Nc2ncc(C)s2)C2C3CCc4c(ccc(O)c4Br)C3CC[C@]12C (stereo partly drawn) [VIV-10, 3-{(13S,15R)-4-Bromo-3-hydroxy-17-[(E)-methoxyimino]-13-methyl-7,8,9,11,12,13,14,15,16,17-decahydro-6H-cyclopenta[a]phenanthren-15-yl}-N-(5-methylthiazol-2-yl)propanamide]	78%		6%		
Cc1cnc(NC(=O)CC[C@@H]2C/C(=N\O)[C@@]3(C)CCC4c5cc(Br)c(O)cc5CCC4C23)s1 (stereo partly drawn) [VIV-25, 3-{(13S,15R)-2-Bromo-3-hydroxy-17-[(E)-hydroxyimino]-13-methyl-7,8,9,11,12,13,14,15,16,17-decahydro-6H-cyclopenta[a]phenanthren-15-yl}-N-(5-methylthiazol-2-yl)propanamide]	77%		25%		
